According to patent US8809386B2, “Use of dynamin ring stabilizers” (Children's Medical Research Institute, priority 2009, dated 2014):

Key:
[1] = test system: purified full length dynamin I; experiment: Electron microscopy of dynamin ring formation in the absence of a template; type: biochemical; details: 5.4 μM, 200 nM dynamin, no template, FIG. 9C
Experimental: Dynamin was then examined by electron microscopy. […] The rings are bona fide dynamin rings (B).
Next, the effect of a ring stabilizer Bis-T-23 on the formation of dynamin rings in the absence of a template like PS liposomes was examined. At high concentrations in vitro, dynamin is well known to self-assemble into rings that are detectable by EM (Hinshaw and Schmid, 1995). Such self assembly requires high dynamin concentrations typically in the order of 500-1000 nM and is not observed at lower dynamin concentrations. Specifically, the effect of Bis-T-23 (5.4 μM) on 200 nM dynamin in the absence of template was tested, which is well below the concentration threshold for self-assembly. […] High power images confirmed that the electron dense structures are bona fide dynamin rings (FIG. 9B). […] The findings with basal dynamin are completely unexpected for a dynamin inhibitor and are indicative of the ring stabilizer activity.

[2] = test system: LPS-induced proteinuria, BALB/c mice; experiment: LPS-induced proteinuria in mice; type: in vivo, mouse; details: IP, 300 μg per 100 g body weight
Experimental: FIG. 21 is a graph showing that the ring stabilizer Bis-T-23 rescues proteinuria in lipopolysaccharide (LPS) treated mice. LPS is a model for proteinuric kidney disease. Albumin levels were determined in 6 mice prior to (Con), 24 hours after LPS injection (2×LPS), and 2, 4, 6 and 8 h after administration of Bis-T-23 (open bars) or DMSO (delivery solution, grey bars). A decrease in proteinuria was noted from 2-8 hours after administration of a single dose of this ring stabilizer.
A second model of acute proteinuria was then employed to test the ability of a dynamin ring stabilizer to ameliorate proteinuria in a reversible model of proteinuric kidney disease. LPS-induced proteinuria was utilized as previously described (Sever et al., 2007). Briefly, four week old female BALB/c mice were injected twice intraperitoneally (IP) with 200 μg of ultrapure LPS diluted in phosphate-buffered saline at a concentration of 1 mg/ml. Proteinuria developed within 48 h (FIG. 20, 2×LPS). Bis-T-23 was dissolved in DMSO to the appropriate concentrations and 300 μg per 100 g body weight was delivered by IP injection, and DMSO was used as a vehicle control. The level of protein in the urine was determined by using mouse Albumin-specific ELISA kit according to manufacturer's protocol (Bethyl Laboratories).

[3] = target: T1, full length dynamin I (Ovis aries, UniProt A0ACI6NZN1); experiment: Basal dynamin GTPase activity in the absence of PS liposomes or other template (ring stabilizer activity); type: biochemical, sheep
T1 sequence (A0ACI6NZN1 1-864): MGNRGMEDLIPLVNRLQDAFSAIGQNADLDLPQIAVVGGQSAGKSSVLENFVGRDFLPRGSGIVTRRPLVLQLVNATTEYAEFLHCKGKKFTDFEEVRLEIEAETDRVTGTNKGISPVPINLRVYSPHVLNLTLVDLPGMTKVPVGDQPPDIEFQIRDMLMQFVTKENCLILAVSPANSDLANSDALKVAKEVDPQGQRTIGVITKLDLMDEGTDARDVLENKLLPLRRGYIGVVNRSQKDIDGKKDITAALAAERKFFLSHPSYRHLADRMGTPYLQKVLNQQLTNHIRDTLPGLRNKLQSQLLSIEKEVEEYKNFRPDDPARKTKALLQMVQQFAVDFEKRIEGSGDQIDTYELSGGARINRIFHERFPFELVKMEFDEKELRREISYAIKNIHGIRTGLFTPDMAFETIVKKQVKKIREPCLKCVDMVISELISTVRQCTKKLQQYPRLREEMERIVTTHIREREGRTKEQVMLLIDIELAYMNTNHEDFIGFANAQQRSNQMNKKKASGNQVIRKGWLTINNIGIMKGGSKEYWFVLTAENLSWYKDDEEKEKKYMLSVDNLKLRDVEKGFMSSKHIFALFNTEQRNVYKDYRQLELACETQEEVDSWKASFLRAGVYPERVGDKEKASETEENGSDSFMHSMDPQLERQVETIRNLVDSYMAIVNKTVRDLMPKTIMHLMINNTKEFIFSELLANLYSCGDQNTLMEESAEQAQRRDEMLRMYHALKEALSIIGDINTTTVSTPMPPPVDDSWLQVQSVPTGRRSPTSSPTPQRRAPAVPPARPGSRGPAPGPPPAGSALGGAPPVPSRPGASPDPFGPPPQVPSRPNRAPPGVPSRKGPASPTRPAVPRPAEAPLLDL
Experimental: The compounds were present at the indicated concentrations and the concentration causing half-maximal stimulation is shown as the EC50.
Dynamin I (50 nM) GTPase stimulation was performed in the absence of the detergent Tween-80 (and in the absence of any known activators such as PS liposomes, nanotubes or microtubules). […] The GTPase activity of dynamin I (dynI; 200 nM) was measured in the absence of lipid activators (and in the presence of standard Tween-80 at 0.06%).
A compound (whether a dynamin inhibitor or not) can be identified as a dynamin ring stabilizer by assaying for its capacity to promote accumulation of dynamin rings and/or to inhibit disassembly of dynamin rings. […] GTPase activity of dynamin or dynamin rings can be determined by any conventionally known method (e.g., see Quan and Robinson. 2005). Such conditions include: (a) the absence of a helix assembly template such as liposomes, microtubules or lipid nanotubes, and (b) higher concentrations of dynamin than normally required for detecting template stimulated activity, typically 50-500 nM dynamin instead of 1-20 nM. Thus, ring stabilizer activity can be identified by the ability to stimulate the GTPase activity of full length dynamin in the absence of other stimulatory factors (such as PS liposomes, microtubules or nanotubes). Additional defining characteristics are available but are not essential if the first condition has been met. One such additional characteristic of ring stabilizer activity is that the stimulated activity occurs after a lag phase of a few minutes, rather than being an immediate activation in vitro. […] Such conditions typically mean utilising 50-200 nM dynamin in the absence of a template as distinct from higher concentrations where self-assembly is known to occur without the addition of a dynamin ring stabilizer.
Next, a time course experiment of Bis-T-23 stimulation of dynamin GTPase (FIG. 3) was conducted. […] The lag phase is thought to indicate the time required for dynamin to assemble as rings.

SMILES: N#CC(=Cc1cc(O)c(O)c(O)c1)C(=O)NCCCNC(=O)C(C#N)=Cc1cc(O)c(O)c(O)c1 [Bis-T-23, 2-cyano-N-{3-[2-cyano-3-(3,4,5-trihydroxyphenyl)-acryloylamino]-propyl}-3-(3,4,5-trihydroxyphenyl)-acrylamide]
- increase in bona fide dynamin rings [1]: 6 fold
- proteinuria (urine albumin) ([2]; 2-6 h after injection, FIG. 21): partially rescued proteinuria
- proteinuria (urine albumin) ([2]; 8 h after injection): ability to rescue proteinuria was reduced
- lag phase before stimulation of dynamin GTPase activity ([3]; 5 μM, 800 nM dynamin, 30 mM NaCl, FIG. 3): about 4 minutes
- stimulation of basal dynamin GTPase activity in the absence of Tween-80 ([3]; Dynamin I 50 nM, no Tween-80, no activators, FIG. 11A): are dynamin ring stabilizers
- concentration causing 50% activation of basal dynamin activity (EC50) ([3]; FIG. 2, compared with IC50 of 500 nM): about the same value
- dynamin concentration at which basal GTPase activity is stimulated ([3]; absence of liposomes, 5 μM, FIG. 1): ≥ 100 nM
